Laboratory results taken from ChEMBL document CHEMBL1142409, “Synthetic ligands that activate and inhibit a quorum-sensing regulator in Pseudomonas aeruginosa” (Bioorg Med Chem Lett, 2008).

How the values were obtained:
[1] = target: T1, (Pseudomonas aeruginosa) (UniProt Q9RMS5); test: Agonist activity at Pseudomonas aeruginosa QscR expressed in Escherichia coli assessed as production of beta-galactosidase at 5 uM relative to dodecanoyl homoserine lactone; assay type: functional
T1 sequence (whole entry): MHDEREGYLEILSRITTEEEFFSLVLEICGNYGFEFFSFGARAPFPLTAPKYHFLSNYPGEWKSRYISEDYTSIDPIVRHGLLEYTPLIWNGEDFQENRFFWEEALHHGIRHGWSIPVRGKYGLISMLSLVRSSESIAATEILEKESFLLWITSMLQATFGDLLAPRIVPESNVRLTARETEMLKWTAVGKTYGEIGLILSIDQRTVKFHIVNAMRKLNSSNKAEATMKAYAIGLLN

[2] = target: T2, Transcriptional activator protein LasR (Pseudomonas aeruginosa (strain ATCC 15692 / PAO1 / 1C / PRS 101 / LMG12228)) (UniProt P25084); test: Inhibition of Pseudomonas aeruginosa LasR; design: concentration or dose not given beside the values; settings: concentration not given here
T2 sequence (whole entry): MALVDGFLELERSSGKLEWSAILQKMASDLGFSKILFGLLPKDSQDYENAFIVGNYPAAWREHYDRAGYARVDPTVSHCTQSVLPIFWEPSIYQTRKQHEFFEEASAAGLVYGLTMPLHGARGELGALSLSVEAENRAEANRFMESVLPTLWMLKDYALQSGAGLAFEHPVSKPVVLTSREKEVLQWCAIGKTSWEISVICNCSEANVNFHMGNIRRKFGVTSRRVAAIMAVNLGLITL

[3] = target: T3, PhzR (Pseudomonas aeruginosa) (UniProt Q9RMS5); test: Antagonist activity at Pseudomonas aeruginosa QscR expressed in Escherichia coli assessed as inhibition of dodecanoyl homoserine lactone induced production of beta-galactosidase at 5 uM; assay type: functional
T3 sequence (whole entry): T1 sequence (whole entry)

[4] = target: QscR (Pseudomonas aeruginosa); test: Antagonist activity at Pseudomonas aeruginosa QscR expressed in Escherichia coli assessed as inhibition of dodecanoyl homoserine lactone induced production of beta-galactosidase
[5] = target: T3, PhzR (Pseudomonas aeruginosa); test: Inhibition of binding of Pseudomonas aeruginosa QscR to DNA at 200 uM in presence of 3-oxo-dodecanoyl -L-homoserine lactone by electromobility shift assay

| SMILES | Activity [1] [%] | inhibition [2] [%] | inhibition [3] [%] | IC50 [4] [nM] | inhibition [5] [%] |
| --- | --- | --- | --- | --- | --- |
| O=C(Cc1cccc(I)c1)N[C@H]1CCOC1=O |  | 50 | 70 |  |  |
| O=C(N[C@H]1CCOC1=O)c1ccc(Br)cc1 |  |  | 78 | 180 | 71 |
| O=C(Cc1ccc(-c2ccccc2)cc1)N[C@H]1CCOC1=O |  | 20 | 88 | 30 | 100 |
| O=C(Cc1cccc(Cl)c1)N[C@H]1CCOC1=O |  | 50 | 73 |  |  |
| CCOc1ccc(CC(=O)N[C@H]2CCOC2=O)cc1 |  |  | 75 | 160 | 82 |
| CC(C)(C)OC(=O)NCc1ccc(C(=O)N[C@H]2CCOC2=O)cc1 |  |  | 77 | 200 | 59 |
| O=C(Cc1cccc([N+](=O)[O-])c1)N[C@H]1CCOC1=O |  | 50 | 71 |  |  |
| CCCCCCCCCCCS(=O)(=O)N[C@H]1CCOC1=O | 51 |  |  |  |  |

Further lines, with some results ahead:

| Activity [1] [%] | inhibition [2] [%] | inhibition [3] [%] | SMILES | IC50 [4] [nM] | inhibition [5] [%] |
| --- | --- | --- | --- | --- | --- |
| 64 | > 50 |  | O=C(CCc1ccc(Br)cc1)N[C@H]1CCOC1=O |  |  |
| 78 |  |  | CCCCCCCCCCCC(=O)CC(=O)N[C@H]1CCOC1=O |  |  |
|  |  | 76 | CCCCCCCCc1ccc(C(=O)N[C@H]2CCOC2=O)cc1 |  | 100 |
| 61 |  |  | CC(C)(C)OC(=O)Nc1ccc(CC(=O)N[C@H]2CCOC2=O)cc1 |  |  |
| 104 |  |  | CCCCCCCCCC(=O)N[C@H]1CCOC1=O |  |  |
| 54 |  |  | CCCc1ccc(C(=O)CCC(=O)N[C@H]2CCOC2=O)cc1 |  |  |
| 59 | > 50 |  | CCCCCCCC(=O)N[C@H]1CCOC1=O |  |  |
| 109 |  |  | CCCCCCCCCC(=O)CC(=O)N[C@H]1CCOC1=O |  |  |
| 74 | > 50 |  | CCCCCC(=O)CC(=O)N[C@H]1CCOC1=O |  |  |
|  | 50 | 71 | O=C(Cc1cccc(Br)c1)N[C@H]1CCOC1=O |  |  |
| 59 |  |  | O=C(CC(=O)N[C@@H]1CCOC1=O)Cc1ccccc1 |  |  |
